Reference: ChEMBL document CHEMBL4020826 (J Med Chem, 2018)

Columns and labels:
[1] = target: CYP2D6 (Homo sapiens, UniProt P10635); test: Inhibition of human CYP2D6 at 10 uM; type: ADME
[2] = tested on: Rattus norvegicus; test: Toxicity in Sprague-Dawley rat assessed as reduction in spontaneous locomotive activity at 30 mg/kg, sc after 90 mins; type: organism-based; design: scale not given: the % may be the effect or the level left; details: in vivo, 1.5 h
[3] = target: Group II metabotropic glutamate receptor (mGlu2/mGlu3) (Rattus norvegicus, UniProt P31421+P31422); test: Displacement of [3H]-LY459477 from mGlu2/3 receptor in Sprague-Dawley rat forebrain primary cortical membranes after 90 mins by liquid scintillation counting
[4] = Plasma concentration in Sprague-Dawley rat at 0.5 mg/kg/day, sc administered via infusion measured after 24 hrs post dose by LC-MS/MS analysis; type: ADME, organism-based
[5] = Plasma concentration in Sprague-Dawley rat at 1 mg/kg, sc administered as single dose measured after 1 hr post dose by LC-MS/MS analysis; type: ADME, organism-based
[6] = target: Metabotropic glutamate receptor 5 (Homo sapiens, UniProt P41594); test: Antagonist activity at recombinant human mGlu5 receptor expressed in hamster AV12 cells co-expressing rat EAAT1/Galpha15 assessed as inhibition of glutamate induced increase in Ca2+ flux after 2.5 mins by Fluo-3 AM dye-based FLIPR assay; type: functional, cell-based
Sequence of Metabotropic glutamate receptor 5 (P41594 whole entry, the tested form may be a part): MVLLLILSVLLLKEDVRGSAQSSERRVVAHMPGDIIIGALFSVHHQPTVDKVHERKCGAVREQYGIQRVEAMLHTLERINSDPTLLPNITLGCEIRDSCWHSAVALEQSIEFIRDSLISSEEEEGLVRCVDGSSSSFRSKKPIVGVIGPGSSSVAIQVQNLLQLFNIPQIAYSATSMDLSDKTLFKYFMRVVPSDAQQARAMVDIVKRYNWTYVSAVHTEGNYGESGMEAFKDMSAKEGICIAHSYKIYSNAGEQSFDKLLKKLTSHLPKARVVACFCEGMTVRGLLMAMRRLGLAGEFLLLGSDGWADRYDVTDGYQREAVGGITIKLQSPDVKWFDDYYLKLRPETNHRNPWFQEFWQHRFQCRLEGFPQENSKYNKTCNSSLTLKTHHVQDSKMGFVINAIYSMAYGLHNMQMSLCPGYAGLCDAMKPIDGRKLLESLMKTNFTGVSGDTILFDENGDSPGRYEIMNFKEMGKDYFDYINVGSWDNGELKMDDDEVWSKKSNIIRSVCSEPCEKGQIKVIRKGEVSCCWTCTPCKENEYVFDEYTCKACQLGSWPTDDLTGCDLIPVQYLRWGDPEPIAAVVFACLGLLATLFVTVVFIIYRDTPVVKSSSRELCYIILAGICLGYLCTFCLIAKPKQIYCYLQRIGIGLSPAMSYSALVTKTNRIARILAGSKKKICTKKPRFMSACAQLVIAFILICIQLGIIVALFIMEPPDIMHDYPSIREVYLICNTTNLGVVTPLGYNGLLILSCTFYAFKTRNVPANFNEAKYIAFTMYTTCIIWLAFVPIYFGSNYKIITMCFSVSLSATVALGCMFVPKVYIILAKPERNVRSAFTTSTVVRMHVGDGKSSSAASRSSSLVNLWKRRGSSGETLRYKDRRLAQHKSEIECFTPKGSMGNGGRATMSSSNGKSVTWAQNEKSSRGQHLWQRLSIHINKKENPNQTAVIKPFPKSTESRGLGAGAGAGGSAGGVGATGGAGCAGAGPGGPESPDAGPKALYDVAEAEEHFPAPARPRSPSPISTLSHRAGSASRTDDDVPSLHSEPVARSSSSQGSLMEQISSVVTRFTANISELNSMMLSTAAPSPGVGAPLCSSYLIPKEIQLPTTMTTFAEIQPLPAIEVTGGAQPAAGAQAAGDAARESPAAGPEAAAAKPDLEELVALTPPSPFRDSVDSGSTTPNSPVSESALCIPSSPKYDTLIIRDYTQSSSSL

[7] = Plasma concentration in Sprague-Dawley rat at 15 mg/kg/day, sc administered via infusion measured after 48 hrs post dose by LC-MS/MS analysis; type: ADME, organism-based
[8] = species on record: Rattus norvegicus; test: Drug metabolism in Sprague-Dawley rat assessed as (1S,2S,4S,5R,6S)-2-Amino-4-[(3-hydroxybenzoyl)amino]-bicyclo[3.1.0]hexane-2,6-dicarboxylic Acid formation measured over 24 hrs; type: ADME
[9] = Plasma concentration in Sprague-Dawley rat at 1.5 mg/kg/day, sc administered via infusion measured after 48 hrs post dose by LC-MS/MS analysis; type: ADME, organism-based
[10] = Fraction unbound in rat plasma; type: ADME, cell-free
[11] = Drug level in Sprague-Dawley rat CSF at 0.1 mg/kg, sc administered as single dose measured after 1 hr post dose by LC-MS/MS analysis; type: ADME, organism-based, Cerebrospinal fluid; details: read-out: Drug uptake
[12] = Drug level in Sprague-Dawley rat CSF at 1 mg/kg, sc administered as single dose measured after 1 hr post dose by LC-MS/MS analysis; type: ADME, organism-based, Cerebrospinal fluid; details: read-out: Drug uptake
[13] = Plasma concentration in Sprague-Dawley rat at 15 mg/kg/day, sc administered via infusion measured after 72 hrs post dose by LC-MS/MS analysis; type: ADME, organism-based
[14] = Cmax in Sprague-Dawley rat at 3 mg/kg, sc measured over 8 hrs by LC-MS/MS analysis; type: ADME, organism-based; design: dose 3 mg/kg, route subcutaneous; details: in vivo
[15] = Plasma concentration in Sprague-Dawley rat at 1.5 mg/kg/day, sc administered via infusion measured after 12 hrs post dose by LC-MS/MS analysis; type: ADME, organism-based
[16] = Fraction unbound in rat brain; type: ADME, tissue-based
[17] = Plasma concentration in Sprague-Dawley rat at 5 mg/kg/day, sc administered via infusion measured after 72 hrs post dose by LC-MS/MS analysis; type: ADME, organism-based
[18] = Drug level in Sprague-Dawley rat CSF at 3 mg/kg, sc administered as single dose measured after 1 hr post dose by LC-MS/MS analysis; type: ADME, organism-based, Cerebrospinal fluid; details: read-out: Drug uptake
[19] = Plasma concentration in Sprague-Dawley rat at 15 mg/kg/day, sc administered via infusion measured after 6 hrs post dose by LC-MS/MS analysis; type: ADME, organism-based
[20] = Drug level in Sprague-Dawley rat CSF at 15 mg/kg/day, sc administered via infusion measured after 72 hrs post dose by LC-MS/MS analysis; type: ADME, organism-based, Cerebrospinal fluid; details: read-out: Drug uptake
[21] = Drug metabolism in rat liver microsomes at 4 uM; type: ADME, microsome; details: read-out: Drug metabolism
[22] = Cmax in Sprague-Dawley rat at 1 mg/kg, iv measured over 8 hrs by LC-MS/MS analysis; type: ADME, organism-based; design: dose 1 mg/kg, route intravenous; details: in vivo
[23] = tested on: Rattus norvegicus; test: Toxicity in Sprague-Dawley rat assessed as reduction in spontaneous locomotive activity at 30 mg/kg, sc after 30 mins; type: organism-based; design: scale not given: the % may be the effect or the level left; details: in vivo, 0.5 h
[24] = Aqueous solubility of the compound at pH 7.4; type: physicochemical; details: buffer
[25] = Plasma concentration in Sprague-Dawley rat at 1.5 mg/kg/day, sc administered via infusion measured after 24 hrs post dose by LC-MS/MS analysis; type: ADME, organism-based
[26] = Plasma concentration in Sprague-Dawley rat at 1.5 mg/kg/day, sc administered via infusion measured after 6 hrs post dose by LC-MS/MS analysis; type: ADME, organism-based
[27] = Plasma concentration in Sprague-Dawley rat at 0.5 mg/kg/day, sc administered via infusion measured after 72 hrs post dose by LC-MS/MS analysis; type: ADME, organism-based
[28] = target: Metabotropic glutamate receptor 8 (Homo sapiens, UniProt O00222); test: Antagonist activity at recombinant human mGlu8 receptor expressed in hamster AV12 cells co-expressing rat EAAT1/Galpha15 assessed as inhibition of glutamate induced increase in Ca2+ flux after 2.5 mins by Fluo-3 AM dye-based FLIPR assay; type: functional, cell-based
[29] = Plasma concentration in Sprague-Dawley rat at 0.3 mg/kg, sc administered as single dose measured after 1 hr post dose by LC-MS/MS analysis; type: ADME, organism-based
[30] = target: CYP2C9 (Homo sapiens, UniProt P11712); test: Inhibition of human CYP2C9 at 10 uM; type: ADME
Sequence of CYP2C9 (P11712 whole entry): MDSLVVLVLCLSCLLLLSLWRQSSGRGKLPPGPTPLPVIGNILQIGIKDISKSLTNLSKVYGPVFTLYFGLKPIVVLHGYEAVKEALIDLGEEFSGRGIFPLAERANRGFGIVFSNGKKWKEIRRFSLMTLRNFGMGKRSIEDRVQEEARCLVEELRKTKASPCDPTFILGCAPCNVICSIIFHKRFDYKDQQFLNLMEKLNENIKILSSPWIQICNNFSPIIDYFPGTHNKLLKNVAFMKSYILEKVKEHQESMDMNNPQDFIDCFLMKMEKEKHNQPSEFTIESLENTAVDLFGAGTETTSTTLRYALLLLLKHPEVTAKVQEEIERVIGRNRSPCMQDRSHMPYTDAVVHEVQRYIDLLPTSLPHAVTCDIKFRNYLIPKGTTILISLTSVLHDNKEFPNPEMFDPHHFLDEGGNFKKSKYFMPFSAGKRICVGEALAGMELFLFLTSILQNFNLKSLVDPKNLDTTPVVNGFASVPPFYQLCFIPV

[31] = Drug metabolism in human liver microsomes at 4 uM; type: ADME, microsome; details: read-out: Drug metabolism
[32] = Half life in Sprague-Dawley rat at 1 mg/kg, iv measured over 8 hrs by LC-MS/MS analysis; type: ADME, organism-based; details: in vivo
[33] = target: Metabotropic glutamate receptor 6 (Homo sapiens, UniProt O15303); test: Agonist activity at human mGlu6 receptor expressed in hamster AV12 cells co-expressing rat EAAT1 assessed as inhibition of forskolin-stimulated cAMP formation after 20 mins by HTRF assay; type: functional, cell-based
Sequence of Metabotropic glutamate receptor 6 (O15303 whole entry, the tested form may be a part): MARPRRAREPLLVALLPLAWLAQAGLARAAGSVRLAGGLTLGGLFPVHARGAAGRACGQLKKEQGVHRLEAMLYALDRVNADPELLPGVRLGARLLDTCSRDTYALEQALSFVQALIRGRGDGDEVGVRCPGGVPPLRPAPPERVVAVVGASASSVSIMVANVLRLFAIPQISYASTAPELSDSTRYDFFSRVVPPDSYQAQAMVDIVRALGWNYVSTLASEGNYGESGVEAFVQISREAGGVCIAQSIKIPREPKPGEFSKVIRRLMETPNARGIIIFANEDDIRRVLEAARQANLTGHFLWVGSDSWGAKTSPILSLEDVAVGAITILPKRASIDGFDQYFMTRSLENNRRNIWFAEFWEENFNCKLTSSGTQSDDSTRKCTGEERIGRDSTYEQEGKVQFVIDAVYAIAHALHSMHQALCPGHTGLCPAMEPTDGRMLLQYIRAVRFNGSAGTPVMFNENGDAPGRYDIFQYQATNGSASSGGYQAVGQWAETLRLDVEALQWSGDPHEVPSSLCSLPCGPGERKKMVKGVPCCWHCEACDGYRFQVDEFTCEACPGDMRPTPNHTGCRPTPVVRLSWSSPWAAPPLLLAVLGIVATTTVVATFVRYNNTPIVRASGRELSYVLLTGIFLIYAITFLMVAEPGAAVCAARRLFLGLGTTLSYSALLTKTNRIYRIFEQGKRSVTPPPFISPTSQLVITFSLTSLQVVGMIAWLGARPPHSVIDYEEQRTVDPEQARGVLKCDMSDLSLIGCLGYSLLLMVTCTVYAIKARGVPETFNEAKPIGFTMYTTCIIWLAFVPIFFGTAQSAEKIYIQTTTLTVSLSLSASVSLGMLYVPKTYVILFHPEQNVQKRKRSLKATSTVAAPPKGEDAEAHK

[34] = Drug level in Sprague-Dawley rat CSF at 1.5 mg/kg/day, sc administered via infusion measured after 72 hrs post dose by LC-MS/MS analysis; type: ADME, organism-based, Cerebrospinal fluid; details: read-out: Drug uptake
[35] = target: Metabotropic glutamate receptor 2 (Homo sapiens, UniProt Q14416); test: Agonist activity at recombinant human mGlu2 receptor expressed in hamster AV12 cells co-expressing rat EAAT1/Galpha15 assessed as induction of increase in Ca2+ flux after 2.5 mins by Fluo-3 AM dye-based FLIPR assay
Sequence of Metabotropic glutamate receptor 2 (Q14416 whole entry): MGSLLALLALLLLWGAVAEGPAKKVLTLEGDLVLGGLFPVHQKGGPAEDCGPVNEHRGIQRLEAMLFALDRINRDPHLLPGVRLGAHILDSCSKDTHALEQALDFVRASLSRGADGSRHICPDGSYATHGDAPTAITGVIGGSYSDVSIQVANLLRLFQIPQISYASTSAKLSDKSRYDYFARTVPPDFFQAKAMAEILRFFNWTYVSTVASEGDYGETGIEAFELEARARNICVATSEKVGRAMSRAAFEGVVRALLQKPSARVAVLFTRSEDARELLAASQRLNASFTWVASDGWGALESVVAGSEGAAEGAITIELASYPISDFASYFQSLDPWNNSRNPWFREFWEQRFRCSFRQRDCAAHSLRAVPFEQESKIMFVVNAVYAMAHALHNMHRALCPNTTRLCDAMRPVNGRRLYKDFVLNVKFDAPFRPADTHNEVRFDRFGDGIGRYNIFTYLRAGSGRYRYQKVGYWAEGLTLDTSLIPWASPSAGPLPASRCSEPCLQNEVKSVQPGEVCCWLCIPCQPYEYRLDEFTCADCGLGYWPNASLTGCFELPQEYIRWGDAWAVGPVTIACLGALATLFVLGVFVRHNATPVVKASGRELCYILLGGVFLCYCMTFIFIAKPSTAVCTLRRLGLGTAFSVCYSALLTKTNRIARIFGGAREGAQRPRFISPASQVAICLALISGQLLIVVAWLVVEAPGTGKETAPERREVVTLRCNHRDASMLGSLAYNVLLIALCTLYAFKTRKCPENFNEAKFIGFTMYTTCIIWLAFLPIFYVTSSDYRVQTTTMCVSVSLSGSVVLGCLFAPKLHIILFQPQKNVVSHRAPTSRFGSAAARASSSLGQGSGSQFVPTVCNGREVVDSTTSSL

[36] = Bioavailability in Sprague-Dawley rat at 3 mg/kg, sc measured over 8 hrs by LC-MS/MS analysis; type: ADME, organism-based; details: in vivo
[37] = target: CYP3A4 (Homo sapiens, UniProt P08684); test: Inhibition of human CYP3A4 at 10 uM; type: ADME
Sequence of CYP3A4 (P08684 whole entry): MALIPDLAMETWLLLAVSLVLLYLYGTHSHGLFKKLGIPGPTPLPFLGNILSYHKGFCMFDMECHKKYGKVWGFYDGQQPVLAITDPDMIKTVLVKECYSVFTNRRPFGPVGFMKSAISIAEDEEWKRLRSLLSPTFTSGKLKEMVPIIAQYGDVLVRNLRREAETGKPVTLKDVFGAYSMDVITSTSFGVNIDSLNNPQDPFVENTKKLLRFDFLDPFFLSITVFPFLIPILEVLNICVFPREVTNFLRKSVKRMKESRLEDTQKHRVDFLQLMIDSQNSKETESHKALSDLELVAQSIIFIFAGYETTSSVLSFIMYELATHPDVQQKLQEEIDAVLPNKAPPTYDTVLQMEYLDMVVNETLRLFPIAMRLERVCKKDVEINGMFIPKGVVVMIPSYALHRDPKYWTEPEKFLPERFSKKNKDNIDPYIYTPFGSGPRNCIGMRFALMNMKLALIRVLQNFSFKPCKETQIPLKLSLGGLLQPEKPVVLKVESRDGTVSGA

[38] = AUC in Sprague-Dawley rat at 1 mg/kg, iv measured over 8 hrs by LC-MS/MS analysis; type: ADME, organism-based; design: time < 8 hr, dose 1 mg/kg, route intravenous; details: in vivo
[39] = Plasma concentration in Sprague-Dawley rat at 5 mg/kg/day, sc administered via infusion measured after 12 hrs post dose by LC-MS/MS analysis; type: ADME, organism-based

Sequence of CYP2D6 (P10635 whole entry): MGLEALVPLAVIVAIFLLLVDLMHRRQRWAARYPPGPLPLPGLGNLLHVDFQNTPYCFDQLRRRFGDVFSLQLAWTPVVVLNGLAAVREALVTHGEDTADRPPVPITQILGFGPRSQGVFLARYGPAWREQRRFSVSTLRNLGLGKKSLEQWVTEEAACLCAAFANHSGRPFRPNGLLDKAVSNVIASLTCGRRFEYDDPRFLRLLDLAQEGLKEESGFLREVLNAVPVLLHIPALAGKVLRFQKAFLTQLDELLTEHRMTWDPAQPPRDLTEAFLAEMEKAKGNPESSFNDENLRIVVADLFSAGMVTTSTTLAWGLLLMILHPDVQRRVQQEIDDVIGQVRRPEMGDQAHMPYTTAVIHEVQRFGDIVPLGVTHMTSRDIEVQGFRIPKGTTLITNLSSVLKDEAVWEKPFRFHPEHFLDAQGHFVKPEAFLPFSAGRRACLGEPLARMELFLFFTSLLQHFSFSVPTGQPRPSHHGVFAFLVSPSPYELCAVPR

## COc1cccc(C(=O)N[C@H]2C[C@@](N)(C(=O)O)[C@@H]3[C@@H](C(=O)O)[C@@H]32)c1
[1]
  inhibition at 10 µM: 0%
[2]
  Activity: 36%
[3]
  Ki: 106 nM
[4]
  concentration at 24 h: 124 nM
[5]
  concentration at 1 h: 1510 to 1580 nM
[6]
  IC50: > 12500 nM
[7]
  concentration at 48 h: 2130 nM
[8]
  Drug metabolism: < 2.5 nM
[9]
  concentration at 48 h: 224 nM
[10]
  fraction unbound: 1
[11]
  concentration at 1 h: 2.48 nM
[12]
  concentration at 1 h: 12.5 to 22.5 nM
[13]
  concentration at 72 h: 3210 nM
[14]
  Cmax: 6780 nM
[15]
  concentration at 12 h: 389 nM
[16]
  fraction unbound: 1
[17]
  concentration at 72 h: 1310 nM
[18]
  concentration at 1 h: 73.6 nM
[19]
  concentration at 6 h: 3840 nM
[20]
  concentration at 72 h: 86.7 nM
[21]
  metabolised at 4 µM: 23%
[22]
  Cmax: 6390 nM
[23]
  Activity: 32%
[24]
  solubility: > 100 µM
[25]
  concentration at 24 h: 403 nM
[26]
  concentration at 6 h: 427 nM
[27]
  concentration at 72 h: 91.2 nM
[28]
  IC50: > 12500 nM
[29]
  concentration at 1 h: 771 nM
[30]
  inhibition at 10 µM: 3.5%
[31]
  metabolised at 4 µM: 12.3%
[32]
  half-life: 3.1 h
[33]
  EC50: 1950 nM
[34]
  concentration at 72 h: 7.5 nM
[35]
  EC50: 277 nM
[36]
  bioavailability: 121%
[37]
  inhibition at 10 µM: 3.6%
[38]
  AUC at 8 h: 2.75 µM·h
[39]
  concentration at 12 h: 1260 nM
